According to patent US8853246B2 (Dow AgroSciences LLC, priority 2009, dated 2014):
Where two headings read alike, the source gives them in different places.

What was measured:
[1] = system: Green Peach Aphid (Myzus Persicae); experiment: Insecticidal test for green peach aphid in foliar spray assay (col. MYZUPE); type: in vivo; conditions: for pest or weed control at 200 ppm: Myzus persicae, 72 h, read-out: MYZUPE 200 ppm (Corrected % Control, rating)
Procedure, shortened: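 Corrected % control derives from microscope counts of live aphids per plant, treated against diluent-only checks, 3 days after foliar spraying at ~25 °C and 40% RH. Test solution was 200 ppm in 0.025% aqueous Tween 20, applied to both leaf sides of infested cabbage seedlings, four pots each.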

[2] = system: Sweetpotato Whitefly-Crawler (Bemisia Tabaci); experiment: Insecticidal test for sweetpotato whitefly-crawler in foliar spray assay (col. BEMITA); type: in vivo; conditions: for pest or weed control at 200 ppm: Bemisia tabaci, read-out: BEMITA 200 ppm (Corrected % Control, rating)
Procedure, shortened: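 Percent control, Abbott-corrected against diluent-sprayed plants, from microscope counts of live nymphs 8-9 days after treatment. Test solution at 200 ppm in 0.025% aqueous Tween 20 applied to both leaf sides of egg-infested cotton after a 5-6 day hatch period (82° F, 50% RH).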

| Compound | pest or weed control at 200 ppm ([1]; green peach aphid) | pest or weed control at 200 ppm ([2]; sweetpotato whitefly-crawler) | other results |
| --- | --- | --- | --- |
| CSCC(C)C(=O)N(C)c1sc(-c2cncc(F)c2)nc1C (stereo not drawn) [Compound 40] | 80 to 100% | 80 to 100% | – |
| CC(CC(=O)N(C)c1sc(-c2cccnc2)nc1Cl)[S+](C)[O-] (stereo not drawn) [Compound 520] | – | – | pest or weed control at 200 ppm ([1]; Abbott's correction formula): 80 to 100%; pest or weed control at 200 ppm ([2]; Abbott's correction formula): < 80% |
| CCCN(C(=O)C(C)CSC)c1sc(-c2cccnc2)nc1C (stereo not drawn) [Compound 286] | 80 to 100% | 80 to 100% | – |
| CSC(C)CC(=O)N(C)c1sc(-c2cccnc2)nc1Cl (stereo not drawn) [Compound 248] | 80 to 100% | 80 to 100% | – |
| CCCCS/C(=N\CC)N(C)c1sc(-c2cccnc2)nc1C [Compound 472] | – | – | pest or weed control at 200 ppm ([1]; Abbott's correction formula): 80 to 100%; pest or weed control at 200 ppm ([2]; Abbott's correction formula): < 80% |
| CCN(C(=O)C(C)C)c1sc(-c2cccnc2)nc1Br [Compound 457] | – | – | pest or weed control at 200 ppm ([1]; Abbott's correction formula): 80 to 100%; pest or weed control at 200 ppm ([2]; Abbott's correction formula): 80 to 100% |
| CCCCOC(=O)N(C)c1sc(-c2cccnc2)nc1C [Compound 483] | – | – | pest or weed control at 200 ppm ([1]; Abbott's correction formula): < 80%; pest or weed control at 200 ppm ([2]; Abbott's correction formula): 80 to 100% |
| CC(C(=O)N(C)CC(=O)N(C)c1sc(-c2cccnc2)nc1Cl)n1cccn1 (stereo not drawn) [Compound 431] | – | – | pest or weed control at 200 ppm ([1]; Abbott's correction formula): 80 to 100%; pest or weed control at 200 ppm ([2]; Abbott's correction formula): < 80% |
| CSCCC(=O)N(C)c1sc(-c2cncc(F)c2)nc1Cl [Compound 266] | 80 to 100% | 80 to 100% | – |
| C=CCSCC(C)C(=O)Nc1sc(-c2cccnc2)nc1C (stereo not drawn) [Compound 224] | 80 to 100% | 80 to 100% | – |
| CCN(C(=O)CCS(C)(=O)=O)c1sc(-c2cncc(F)c2)nc1C [Compound 257] | – | – | MYZUPE 200 ppm (Corrected % Control, rating) ([1]; green peach aphid): A (80-100); BEMITA 200 ppm (Corrected % Control, rating) ([2]; sweetpotato whitefly-crawler): A (80-100) |
| CN(C(=O)OC(C)(C)C)c1sc(-c2cccnc2)nc1C(F)(F)F [Compound 10, methyl-(2-pyridin-3-yl-4-trifluoromethyl-thiazol-5-yl)carbamic acid tert-butyl ester] | < 80% | 80 to 100% | – |
| CCN(C(=O)C(C)C(C)SC)c1sc(-c2cccnc2)nc1Cl (stereo not drawn) [Compound 538] | – | – | pest or weed control at 200 ppm ([1]; Abbott's correction formula): 80 to 100%; pest or weed control at 200 ppm ([2]; Abbott's correction formula): 80 to 100% |
| CCN(C(=O)C1C[C@@H]1SC)c1sc(-c2cncc(F)c2)nc1Cl (mixture of isomers) [Compound 448] | – | – | pest or weed control at 200 ppm ([1]; Abbott's correction formula): 80 to 100%; pest or weed control at 200 ppm ([2]; Abbott's correction formula): 80 to 100% |
| CC(=O)OC(C)C(=O)N(C)c1sc(-c2cccnc2)nc1Cl (stereo not drawn) [Compound 336] | – | – | MYZUPE 200 ppm (Corrected % Control, rating) ([1]; green peach aphid): A (80-100); BEMITA 200 ppm (Corrected % Control, rating) ([2]; sweetpotato whitefly-crawler): A (80-100) |
| Cc1nc(-c2cccnc2)sc1N(Cc1ccccc1)C(=O)OC(C)(C)C [Compound 15, Benzyl-(4-methyl-2-pyridin-3-yl-thiazol-5-yl)-carbamic acid tert-butyl ester] | 80 to 100% | 80 to 100% | – |
| CSCC(Cc1ccccc1)C(=O)N(C)c1sc(-c2cccnc2)nc1Cl (stereo not drawn) [Compound 331] | < 80% | 80 to 100% | – |
| CCN(C(=O)OC(C)(C)C)c1sc(-c2cncc(F)c2)nc1Cl [Compound 267] | 80 to 100% | 80 to 100% | – |
| Cc1nc(-c2cccnc2)sc1N(C)C(=O)CNC(=O)OC(C)(C)C [Compound 276] | 80 to 100% | < 80% | – |
| Cc1nc(-c2cccnc2)sc1NC(=O)c1ccoc1 [Compound 399] | 80 to 100% | 80 to 100% | – |
| CC(=O)OC(C)C(=O)N(C)c1sc(-c2cccnc2)nc1C (stereo not drawn) [Compound 335] | – | – | MYZUPE 200 ppm (Corrected % Control, rating) ([1]; green peach aphid): A (80-100); BEMITA 200 ppm (Corrected % Control, rating) ([2]; sweetpotato whitefly-crawler): A (80-100) |
| CCN(C(=O)C(C)(C)CSC)c1sc(-c2cccnc2)nc1C [Compound 237] | 80 to 100% | 80 to 100% | – |
| Cc1nc(-c2cccnc2)sc1N(C)C(=O)C(C)(C)CS(C)(=O)=O [Compound 97] | 80 to 100% | 80 to 100% | – |
| CCN(C(=O)CCSC)c1sc(-c2cccnc2)nc1C [Compound 236] | 80 to 100% | 80 to 100% | – |
| CSCC[C@H](NC(=O)OC(C)(C)C)C(=O)N(C)c1sc(-c2cccnc2)nc1C [Compound 281] | < 80% | < 80% | – |
| Cc1nc(-c2cccnc2)sc1N(C)C(=O)CCS(C)(=O)=O [Compound 95, 3-methanesulfonyl-N-methyl-N-(4-methyl-2-pyridin-3-yl-thiazol-5-yl)-propionamide] | 80 to 100% | 80 to 100% | – |
| Cc1nc(C)n(CC(C)C(=O)N(C)c2sc(-c3cccnc3)nc2Cl)n1 (stereo not drawn) [Compound 333] | – | – | MYZUPE 200 ppm (Corrected % Control, rating) ([1]; green peach aphid): A (80-100); BEMITA 200 ppm (Corrected % Control, rating) ([2]; sweetpotato whitefly-crawler): B (Less than 80) |
